These results are taken from patent US8217085B2 (priority 2009, dated 2012).

Where two headings read alike, the source gives them in different places.

For assay [1], the system named is ATCC strain 43300 Staphylococcus aureus. Particulars: methicillin alone, 12 μg/ml, 30 μg/ml and 60 μg/ml.
Procedure: Additional antibiotic was added every 24 hours. The growth periods tested were 24 (FIG. 5), 48, 72, 96 and 120 hours.
USP<51> Antimicrobial Effectiveness protocol was used as the template experimental paradigm. […] All concentrations were plated out to the 10^−7 dilutions to ascertain cfu/ml. […] Additional antibiotic was added at the initial concentration every 24 hours.
ATCC strain 43300 Staphylococcus aureus was streaked out for isolations. An isolated colony was chosen, streaked again and incubated. Isolate was chosen and then diluted to a McFarland standard of one. The estimated value was then taken to inoculate tubes containing growth media and 12, 30 or 60 μg/ml methicillin with approximately 10^5 cfu/ml. These tubes were incubated and plated for counting cfu.
Material was calculated on a 10 ml volume. Sterile methicillin was added to each experimental condition to a final concentration of 12, 30 or 60 μg/ml antibiotic. Lactose Broth positive controls both with and without the 12 μg/ml, 30 μg/ml, 60 μg/ml antibiotic were inoculated with MRSA. […] Tubes were set up in singlet, but plated in triplicate, as described below.
All tubes were then inoculated with a dilution of the selected ATCC strain 43300 Staphylococcus aureus clone giving a final level of colony forming units of 1.49×10^5/ml (log=5.17). The tubes were incubated at 25° C. and mixed periodically. Antibiotic was re-inoculated every 24 hours at the initial concentration to maintain pressure on the organism. Plating was done at 24, 48, 72, and 120 hours. Each condition was plated by diluting 1 ml of growth material into 9 ml of MLB diluent broth. […] This mixture was serial diluted down to 10^−7 with 1 ml placed in triplicate in a sterile petri dish at each dilution point. 20 mls of TSA was added to each dilution, swirled and allowed to solidify. All dilutions were placed in a 35° C. incubator for 24 to 72 hours. Bacterial colonies on each plate were counted and the average taken then changed into log format.
Assay [2] deals with drug sensitive Staphylococcus aureus. Particulars: Etest system; cited from earlier work.
The test system of assay [3] is ATCC strain 43300 Staphylococcus aureus. Particulars: oxacillin alone, 12 μg/ml, 30 μg/ml and 60 μg/ml.
Procedure: Additional antibiotic was added every 24 hours.
USP<51> Antimicrobial Effectiveness protocol was used as the template experimental paradigm. […] All concentrations were plated out to the 10^−7 dilutionsto ascertain cfu/ml. […] Additional antibiotic was added at the initial concentration every 24 hours.
ATCC strain 43300 Staphylococcus aureus was streaked out for isolations. An isolated colony was chosen, streaked again and incubated. Isolate was chosen and then diluted to a McFarland standard of one. The estimated value was then taken to inoculate tubes containing growth media and 12, 30 or 60 μg/ml oxacillin with approximately 10^5 cfu/ml. These tubes were incubated and plated for counting cfu.
Material was calculated on a 10 ml volume. Sterile oxacillin was added to each experimental condition to a final concentration of 12, 30 or 60 μg/ml antibiotic.
All tubes were then inoculated with a dilution of the selected ATCC strain 43300 Staphylococcus aureus clone giving a final level of colony forming units of 3.3×10^5/ml (log=5.52). The tubes were incubated at 25° C. and mixed periodically. Antibiotic was re-inoculated every 24 hours at the initial concentration to maintain pressure on the organism. Plating was done at 24, 48, 72, and 120 hours. Each condition was plated by diluting 1 ml of growth material into 9 ml of MLB diluent broth. […] This mixture was serial diluted down to 10^−7 with 1 ml placed in triplicate in a sterile petri dish at each dilution point. 20 mls of TSA was added to each dilution, swirled and allowed to solidify. All dilutions were placed in a 35° C. incubator for 24 to 72 hours. Bacterial colonies on each plate were counted and the average taken then changed into log format. Any cfu/ml observed greater than 3.3×10^5 (log=5.5) were recorded as >3.3×10^5.

Take `COc1cccc(OC)c1C(=O)N[C@@H]1C(=O)N2[C@@H]1SC(C)(C)[C@@H]2C(=O)O` [methicillin, reference compound]: in assay [1], the “change in colony forming units from initial inoculum” value was “no significant decrease in colony forming units”.

One may read the MIC as the lowest concentration that inhibits growth of the organism. With `Cc1onc(-c2ccccc2)c1C(=O)N[C@@H]1C(=O)N2[C@@H]1SC(C)(C)[C@@H]2C(=O)O` [oxacillin, reference compound], the MIC in assay [2] is at most 2 µg/mL. Besides, the “change in colony forming units from initial inoculum” value in assay [3] is “no significant decrease in colony forming units”.
